Measurements taken from patent US20260001875A1, “AMINOPYRIMIDINYL DERIVATIVES FOR THE TREATMENT OF PARKINSON'S DISEASE” (UNIVERSITY OF DUNDEE, priority 2022, published 2026).

Tests used:
Rab10 pThr73 [1] = test: Rab10 Thr73 dephosphorylation (immunoblot) in LRRK2^G2019S MEFs; assay type: cell-based; conditions: Mus musculus, read-out: pRab10 inhibited in LRRK2^G2019S MEFs
Rab10 pThr73 [2] = test: Rab10 Thr73 dephosphorylation (immunoblot) in WT MEFs; assay type: cell-based, mouse; conditions: Mus musculus; for inhibition at 0.033 µM / inhibition at 1 µM: read-out: pRab10 inhibited in WT MEFs; for EC50: dose response, 4 h treatment, read-out: WT MEFs pRab10-dephosphrylation EC50
Method in brief: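 Wild-type mouse embryonic fibroblasts in 6-well plates were treated with LRRK2 PROTACs, with two biological replicates per condition. Cells were washed in PBS and lysed on ice in buffer containing phosphatase and protease inhibitors plus 1% Triton X-100, then clarified at 15,000 g. Rab10 Thr73 phosphorylation was measured by quantitative immunoblotting of 15 to 20 μg protein on 4-12% Bis-Tris gels.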

LRRK2^WT = molecular target: T1, LRRK2^WT (Mus musculus, UniProt Q5S006); test: Western blot LRRK2 degradation in WT MEFs; assay type: cell-based; conditions: dose response, 4 h treatment; for Dmax: read-out: Dmax on WT MEFs
T1 construct: endogenous in cells; host or cells: primary wild-type mouse embryonic fibroblasts (MEFs)
T1 sequence (Q5S006 whole entry): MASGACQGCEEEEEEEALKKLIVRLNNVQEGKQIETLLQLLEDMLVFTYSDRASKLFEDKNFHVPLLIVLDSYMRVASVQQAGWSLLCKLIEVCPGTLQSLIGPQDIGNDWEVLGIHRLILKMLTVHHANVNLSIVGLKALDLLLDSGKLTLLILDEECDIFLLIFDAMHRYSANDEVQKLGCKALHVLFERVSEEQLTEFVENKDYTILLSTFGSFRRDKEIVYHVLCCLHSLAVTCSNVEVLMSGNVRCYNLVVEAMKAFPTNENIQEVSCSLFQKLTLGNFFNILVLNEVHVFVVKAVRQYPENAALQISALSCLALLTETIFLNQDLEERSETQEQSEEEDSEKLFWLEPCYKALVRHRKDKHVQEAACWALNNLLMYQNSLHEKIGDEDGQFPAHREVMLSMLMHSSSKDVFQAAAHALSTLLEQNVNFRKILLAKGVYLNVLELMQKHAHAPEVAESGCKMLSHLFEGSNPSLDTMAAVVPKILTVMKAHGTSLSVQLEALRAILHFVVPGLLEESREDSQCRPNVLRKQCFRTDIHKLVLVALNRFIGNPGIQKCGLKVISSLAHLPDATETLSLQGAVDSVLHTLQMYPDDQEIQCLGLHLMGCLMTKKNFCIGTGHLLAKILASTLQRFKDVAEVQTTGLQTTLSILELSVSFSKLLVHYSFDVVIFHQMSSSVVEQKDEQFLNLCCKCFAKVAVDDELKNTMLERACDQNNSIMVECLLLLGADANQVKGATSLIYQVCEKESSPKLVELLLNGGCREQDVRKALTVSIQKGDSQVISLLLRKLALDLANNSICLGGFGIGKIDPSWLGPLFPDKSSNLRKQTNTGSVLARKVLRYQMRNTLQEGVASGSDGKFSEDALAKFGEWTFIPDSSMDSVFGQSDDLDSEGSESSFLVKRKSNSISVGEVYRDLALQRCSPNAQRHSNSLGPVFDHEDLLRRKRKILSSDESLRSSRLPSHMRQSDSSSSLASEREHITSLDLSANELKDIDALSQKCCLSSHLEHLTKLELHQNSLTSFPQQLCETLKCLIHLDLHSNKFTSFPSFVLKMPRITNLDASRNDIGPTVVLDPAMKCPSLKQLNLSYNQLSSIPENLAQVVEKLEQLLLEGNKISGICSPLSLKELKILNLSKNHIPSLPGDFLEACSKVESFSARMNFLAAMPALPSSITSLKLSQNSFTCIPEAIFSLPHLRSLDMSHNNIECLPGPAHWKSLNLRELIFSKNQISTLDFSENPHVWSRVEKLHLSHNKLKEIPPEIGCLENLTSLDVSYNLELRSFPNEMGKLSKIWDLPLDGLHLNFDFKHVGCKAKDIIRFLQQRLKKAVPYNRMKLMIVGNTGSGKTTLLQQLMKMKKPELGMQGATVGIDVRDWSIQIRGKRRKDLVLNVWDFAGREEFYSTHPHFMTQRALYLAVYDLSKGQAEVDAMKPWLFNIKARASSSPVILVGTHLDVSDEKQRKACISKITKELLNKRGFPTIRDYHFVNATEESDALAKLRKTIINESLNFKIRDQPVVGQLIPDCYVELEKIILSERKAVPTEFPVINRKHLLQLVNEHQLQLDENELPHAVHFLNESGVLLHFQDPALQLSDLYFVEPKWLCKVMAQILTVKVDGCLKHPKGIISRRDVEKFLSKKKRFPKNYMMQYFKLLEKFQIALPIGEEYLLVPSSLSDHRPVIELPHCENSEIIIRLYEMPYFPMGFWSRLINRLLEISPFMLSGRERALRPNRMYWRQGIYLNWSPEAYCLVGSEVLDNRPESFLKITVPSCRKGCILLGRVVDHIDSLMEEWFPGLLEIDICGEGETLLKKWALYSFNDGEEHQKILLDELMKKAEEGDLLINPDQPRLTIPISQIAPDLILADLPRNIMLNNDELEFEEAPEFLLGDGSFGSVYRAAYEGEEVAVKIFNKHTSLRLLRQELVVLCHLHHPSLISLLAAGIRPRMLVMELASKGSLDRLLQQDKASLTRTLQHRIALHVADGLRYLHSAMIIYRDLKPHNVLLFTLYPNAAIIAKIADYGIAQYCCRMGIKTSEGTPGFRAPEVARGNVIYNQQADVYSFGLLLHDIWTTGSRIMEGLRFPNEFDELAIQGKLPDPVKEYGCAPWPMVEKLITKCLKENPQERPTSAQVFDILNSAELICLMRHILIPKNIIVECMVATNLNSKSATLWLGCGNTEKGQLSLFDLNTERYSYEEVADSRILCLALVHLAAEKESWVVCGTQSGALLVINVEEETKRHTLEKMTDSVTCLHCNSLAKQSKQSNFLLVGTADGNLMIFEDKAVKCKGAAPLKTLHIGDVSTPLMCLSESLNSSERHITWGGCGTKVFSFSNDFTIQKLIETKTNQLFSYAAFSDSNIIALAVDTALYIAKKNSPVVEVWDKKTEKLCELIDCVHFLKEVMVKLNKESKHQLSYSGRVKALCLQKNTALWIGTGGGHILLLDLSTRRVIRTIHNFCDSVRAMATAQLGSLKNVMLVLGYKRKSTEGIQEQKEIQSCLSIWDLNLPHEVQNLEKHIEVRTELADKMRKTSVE
Experimental: (§1) Western blot degradation assays for the LRRK2 protacs were performed with WT and PD-associated LRRK2 [G2019S] mouse embryonic fibroblasts (MEFs). The second-generation PROTACs were tested in parallel with the first generation PROTACs SD75, SD82, and SD100. The compounds were tested at 33 nM or […] concentrations for 4 hours or 24 hours, running two biological replicates per condition and achieving quantifications representative of both replicates. Analysis by quantitative immunoblotting was performed with readouts of the total LRRK2 (antibody recognizes epitope in C-terminus of protein), Rab10 pThr73 (physiological substrate) and LRRK2 pSer935 (biomarker phosphorylation site).
(§2) Primary MEFs were generated as described in a previous study (Wiggin et al., Mol. Cell Biol. 2002 April; 22(8):2871-81.). Briefly, the uterine horn was collected from adult female mice at day E12.5 and transferred to a 10 cm tissue culture dish containing cold PBS. Two forceps were used to tear the yolk sacs to isolate each embryo. Forceps were cleaned thoroughly with 70% ethanol between each embryo isolation. The embryos were culled, and a tissue piece was collected in a PCR tube for genotyping. The red tissue of the embryo, which grows to become the heart and liver, was removed. The remainder of the embryo was minced with a scalpel blade and incubated with 7.5 ml trypsin-EDTA solution for 10 minutes in a 37° C. tissue culture CO2 incubator. The dish was removed from the incubator and checked under a light microscope for single cells. 7.5 ml complete media was added to the trypsinised cells, and the cell suspension was transferred to a 15 ml Falcon tube, centrifuged at 1200 rpm for 5 minutes at room temperature. The trypsin was aspirated, the cell pellet was resuspended in 5 ml fresh complete media, and the cell suspension was plated in a 60 mm tissue culture dish and incubated in a 37° C., 5% CO2 tissue culture incubator. The MEFs at this stage were considered as passage 0 and were passaged and expanded for experimental use once the genotype was confirmed by allelic sequencing and immunoblotting. MEFs were cultured in Dulbecco's modified Eagle medium (DMEM) containing 10% (v/v) fetal bovine serum (FBS), 2 mM L-glutamine, 100 U/ml penicillin, and 100 μg/ml streptomycin supplemented with 1× non-essential amino acids and 1 mM sodium pyruvate.
Culturing and passaging of adherent cell lines were carried out using aseptic technique in CL1 or CL2 (for PBMC isolation) biological safety cabinets. All cells were incubated in a 37° C. incubator with 5% CO2. Cell lines were regularly tested for mycoplasma contamination. For western blot assay, the cells were seeded in 6-well plates. After treating with testing compounds at indicated concentrations and time period, the media was removed and the cells were washed with PBS and lysed in 100 μl ice-cold complete lysis buffer containing 50 mM Tris-HCl pH 7.4, 1 mM EGTA, 10 mM 2-glycerophosphate, 50 mM sodium fluoride, 5 mM sodium pyrophosphate, 270 mM sucrose, supplemented with 1 μg/ml microcystin-LR, 1 mM sodium orthovanadate, complete EDTA-free protease inhibitor cocktail (Roche) and 1% (v/v) Triton X-100. The cells were immediately placed on ice and were scraped and collected into 1.5 ml Eppendorf tubes. Cell lysates were incubated on ice for 10 minutes prior to centrifugation at 15,000 g at 4° C. for 15 minutes. The cell pellet was discarded, and supernatant was collected for analysis by quantitative immunoblotting. For long term storage, the supernatant was flash frozen and stored at −80° C. Protein concentrations of cell lysates were determined using the Bradford assay.
Cell lysates containing a quarter of a volume of 4× NuPAGE LDS sample buffer (NP0007) supplemented with 5% β-mercaptoethanol, were heated at 95° C. for 5 minutes. […]

Rab10 pThr73 [3] = test: Rab10 Thr73 dephosphorylation (immunoblot) in LRRK2^G2019S MEFs; assay type: cell-based, mouse; conditions: Mus musculus; for inhibition at 1 µM: read-out: pRab10 inhibited in LRRK2^G2019S MEFs; for EC50: dose response, 4 h treatment, read-out: G2019S MEFs-pRab10-dephosphorylation EC50
LRRK2^G2019S = molecular target: T2, LRRK2^G2019S (Mus musculus, UniProt Q5S006, G2019S); test: Western blot LRRK2 degradation in LRRK2^G2019S MEFs; assay type: cell-based; conditions: dose response, 4 h treatment; for Dmax: read-out: Dmax on G2019S MEFs
T2 construct: endogenous in cells; host or cells: LRRK2[G2019S] mouse embryonic fibroblasts (MEFs)
T2 sequence (Q5S006 whole entry G2019S): as the sequence (Q5S006 whole entry) above, with G2019S counted along it
Experimental: as §1, with “The” for “Western blot degradation assays for the LRRK2 protacs were performed with WT and PD-associated LRRK2 [G2019S] mouse embryonic fibroblasts (MEFs). The”
as §2
Culturing and passaging of adherent cell lines were carried out using aseptic technique in CL1 or CL2 (for PBMC isolation) biological safety cabinets. All cells were incubated in a 37° C. incubator with 5% CO2. Cell lines were regularly tested for mycoplasma contamination. For western blot assay, the cells were seeded in 6-well plates. […] The cells were immediately placed on ice and were scraped and collected into 1.5 ml Eppendorf tubes. Cell lysates were incubated on ice for 10 minutes prior to centrifugation at 15,000 g at 4° C. for 15 minutes. The cell pellet was discarded, and supernatant was collected for analysis by quantitative immunoblotting. For long term storage, the supernatant was flash frozen and stored at −80° C. Protein concentrations of cell lysates were determined using the Bradford assay.
Cell lysates containing a quarter of a volume of 4× NuPAGE LDS sample buffer (NP0007) supplemented with 5% β-mercaptoethanol, were heated at 95° C. for 5 minutes. 15 to 20 μg of samples were loaded onto pre-cast 4-12% Bis-Tris midi 20W or 26W gels (Thermofisher Scientific®, Cat #WG1402BOX or WG1403BOX) and resolved at 130 V for 2 hours with NuPAGE MOPS SDS running buffer (Thermofisher Scientific® Cat #NP0001-02). Proteins were electrophoretically transferred onto a 0.45 μm nitrocellulose membrane (GE Healthcare, Amersham Protran® Supported 0.45 mm NC) at 90 V for 90 min on ice in transfer buffer (48 mM Tris base and 39 mM glycine supplemented with 20% methanol). The transferred membrane was blocked with 5% (w/v) skim milk powder dissolved in tris-buffered saline with tween (TBS-T) (50 mM Tris base, 150 mM sodium chloride (NaCl), 0.1% (v/v) Tween-20) at room temperature for 1 hour.

| Compound | inhibition at 0.033 µM (Rab10 pThr73 [1]; 33 nM/4 h treatment) | inhibition at 0.033 µM (Rab10 pThr73 [1]; 33 nM/24 h treatment) | inhibition at 0.033 µM (Rab10 pThr73 [2]; 33 nM/4 h treatment) | inhibition at 0.033 µM (Rab10 pThr73 [2]; 33 nM/24 h treatment) | inhibition at 1 µM (Rab10 pThr73 [2]; 1 μM/4 h treatment) | inhibition at 1 µM (Rab10 pThr73 [2]; 1 μM/24 h treatment) | EC50 (Rab10 pThr73 [2]) | DC50 (LRRK2^WT) | Dmax (LRRK2^WT) | inhibition at 1 µM (Rab10 pThr73 [3]; 1 μM/4 h treatment) | inhibition at 1 µM (Rab10 pThr73 [3]; 1 μM/24 h treatment) | EC50 (Rab10 pThr73 [3]) | DC50 (LRRK2^G2019S) | Dmax (LRRK2^G2019S) |
| --- | --- | --- | --- | --- | --- | --- | --- | --- | --- | --- | --- | --- | --- | --- |
| CNc1nc(Nc2ccc(OC3CCN(C[C@H]4CC[C@H](CSC(C)(C)C(NC(=O)C5(F)CC5)C(=O)N5C[C@H](O)C[C@H]5C(=O)NCc5ccc(-c6scnc6C)cc5)CC4)CC3)cc2OC)ncc1Cl (stereo partly drawn) [XL02017, (2S,4R)-1-((S)-3-((((1R,4S)-4-((4-(4-((5-chloro-4-(methylamino)pyrimidin-2-yl)amino)-3-methoxyphenoxy)piperidin-1-yl)methyl)cyclohexyl)methyl)thio)-2-(1-fluorocyclopropane-1-carboxamido)-3-methylbutanoyl)-4-hydroxy-N-(4-(4-methylthiazol-5-yl)benzyl)pyrrolidine-2-carboxamide] | 0 to 90% | 30 to 90% | 0 to 70% | 0 to 80% | 80 to 100% | 80 to 100% | 0.083 µM | 0.044 µM | 68% | 10 to 100% | 80 to 100% | 0.025 µM | 0.022 µM | 79% |
| CNc1nc(Nc2ccc(C(=O)N3CCC4(CCN(C[C@H]5CC[C@H](CSC(C)(C)C(NC(=O)C6(F)CC6)C(=O)N6C[C@H](O)C[C@H]6C(=O)NCc6ccc(-c7scnc7C)cc6)CC5)CC4)CC3)cc2OC)ncc1Cl (stereo partly drawn) [XL02038, (2S,4R)-1-((S)-3-((((1R,4S)-4-((9-(4-((5-chloro-4-(methylamino)pyrimidin-2-yl)amino)-3-methoxybenzoyl)-3,9-diazaspiro[5.5]undecan-3-yl)methyl)cyclohexyl)methyl)thio)-2-(1-fluorocyclopropane-1-carboxamido)-3-methylbutanoyl)-4-hydroxy-N-(4-(4-methylthiazol-5-yl)benzyl)pyrrolidine-2-carboxamide] | 0 to 90% | 30 to 90% | 0 to 70% | 0 to 80% | 80 to 100% | 80 to 100% | 0.014 µM |  | 65% | 10 to 100% | 80 to 100% | 0.01 µM |  | 79% |
| CNc1nc(Nc2ccc(C(=O)N3CCN(C[C@H]4CC[C@H](CSC(C)(C)[C@H](NC(=O)C5(F)CC5)C(=O)N5C[C@H](O)CC5C(=O)NCc5ccc(-c6scnc6C)cc5F)CC4)CC3)cc2OC)ncc1Cl (stereo partly drawn) [XL02047, (2S,4R)-1-(®-3-((((1r,4R)-4-((4-(4-((5-chloro-4-(methylamino)pyrimidin-2-yl)amino)-3-methoxybenzoyl)piperazin-1-yl)methyl)cyclohexyl)methyl)thio)-2-(1-fluorocyclopropane-1-carboxamido)-3-methylbutanoyl)-N-(2-fluoro-4-(4-methylthiazol-5-yl)benzyl)-4-hydroxypyrrolidine-2-carboxamide] | 0 to 90% | 30 to 90% | 0 to 70% | 0 to 80% | 80 to 100% | 80 to 100% | 0.228 µM | 0.045 µM | 78% | 10 to 100% | 80 to 100% | 0.073 µM | 0.06 µM | 79% |
| CNc1nc(Nc2ccc(C(=O)N3CCN(C[C@H]4CO[C@H](CSC(C)(C)[C@@H](NC(=O)C5(F)CC5)C(=O)N5C[C@H](O)C[C@H]5C(=O)NCc5ccc(-c6scnc6C)cc5)CO4)CC3)cc2OC)ncc1Cl [XL02098, (2S,4R)-1-((S)-3-((((2S,5S)-5-((4-(4-((5-chloro-4-(methylamino)pyrimidin-2-yl)amino)-3-methoxybenzoyl)piperazin-1-yl)methyl)-1,4-dioxan-2-yl)methyl)thio)-2-(1-fluorocyclopropane-1-carboxamido)-3-methylbutanoyl)-4-hydroxy-N-(4-(4-methylthiazol-5-yl)benzyl)pyrrolidine-2-carboxamide] |  |  |  |  | 75 to 90% |  | 0.282 µM | 0.05 µM | 59% | 80 to 100% |  | 0.157 µM | 0.045 µM | 81% |
